Data: US5925667A, “Pyrrolidine derivative, anti-ulcer drug, and antibacterial drug” (Shiseido Co., Ltd., priority 1997, dated 1999)

Assays:
stress ulcer = assay: WIS: Restraint and Water Immersion Stress-Induced Ulcer Inhibition Test; format: in vivo, male Crj:SD or Slc:SD rats; details: rat, 100 mg/kg oral, 7 h water immersion stress; read-out: ulcer formation inhibitory rate (WIS)
Experimental: WIS: Restraint and Water Immersion Stress-Induced Ulcer Inhibition Test
The degree of inhibition of the stress ulcer formation is tested.
Male Crj:SD or Slc:SD rats (6 to 7-week-old) were fasted overnight, but allowed free access to water. Each group has 5 to 8 of these rats. The sample compound was dissolved or suspended in an aqueous solution of 0.3% sodium carboxymethylcellulose or 0.05% Tween 80 and then was orally administered (100 mg/10 ml/kg. To a control group, the vehicle was administered. 10 minutes later, the rats were placed in a stress cage and immersed to the level of xipfoid process in a water bath (21° C.) for 7 hours. At the end of the stress, the rats were sacrificed by inhalation of ether or carbon dioxide. Then, the stomach of each was removed, inflated by injecting 10 ml of 5% formalin neutral buffer solution, and immersed in 1% formalin neutral buffer solution for 30 minutes or more to be fixed. The stomach was incised along the greater curvature and then the length of each erosion in the glandular portion was determined under dissecting microscope. The sum of the length of erosions per stomach was defined as ulcer index (UI).
The effect obtained when 100 mg/kg of the sample compound had been administered was expressed as ulcer formation inhibitory rate (%) as follows:
ulcer formation inhibitory rate (%)=(1-(UI in sample group/UI in control group))×100

Slc:ICR mice = system: Slc:ICR mice; design: species or system male Slc:ICR mice; details: mouse, in vivo
Experimental: AT: Single Dose Toxicity Pretest
Male Slc:ICR mice (5-week-old) were used. Each group has 3 to 5 mice and each mouse was fasted, but allowed free access to water, for 4 to 5 hours from 9 a.m. in the test day. Then, 2,000 mg/10 ml/kg of the sample compound dissolved or suspended in an aqueous solution of 0.5% sodium carboxymethyl cellulose was orally administered thereto. To a control, only the vehicle was administered. […] The body weight was measured before and after the fasting as well as at the same time everyday. The dead animals were immediately subjected to autopsy and their organs were observed by naked eyes. Also, the living animals were sacrificed with ether or carbon dioxide one week after the administration and then their organs were observed by naked eyes.
The toxicity at the single dose of 2,000 mg/kg of the sample compound was expressed as being classified into 5 levels.
5: Mortality rate is 0%; no toxicity is found at all both in behavior and organs.
4: Mortality rate is 0%; while no toxicity is found in organs, slight toxicity is observed in behavior or body weight increase.
3: While there is a dead animal (though not all the animals are dead), no toxicity is found in organs.
2: Regardless of whether there is a dead animal or not, toxicity is found in organs.
1: All the animals are dead.

[1] = system: isolated gastric fundic gland; assay: CAP: Acid Secretion Inhibition Test In Vitro ([14C]-aminopyrine uptake test); format: cell-based, male Japanese White rabbit; details: Oryctolagus cuniculus; final concentration 10^-5 M, histamine 10^-5 M; read-out: acid secretion inhibitory rate (CAP)
Experimental: CAP: Acid Secretion Inhibition Test In Vitro
The acid secretion inhibitory activity in a cell level is studied. It can also be used for studying the mechanism of the effect.
ii-a) Preparation of isolated gastric fundus gland suspension
First, an isolated gastric fundic gland sample was prepared. Namely, a male Japanese White rabbit (2.5 to 3 kg) was anesthetized to death with Nembutal™ and then the abdomen was incised. Immediately thereafter, the stomach was removed and, after its pyloric and cardiac antrum were severed, incised along its greater curvature into two sheets. The gastric contents adhering to the mucosal surface was washed out with ice-cooled PBS (-) and then carefully washed therein. The gastric wall was spread on a cork board with its mucosal surface facing up and the feed and mucus thereon were completely removed with sterile gauze. The mucosa was separated therefrom by a spatula and then collected in ice-cooled PBS (-). After being washed twice with PBS (-), the mucosa was minced into 2-3 mm^3 pieces by scissors. These pieces were further washed twice with a nutrient solution. The nutrient solution comprises 132.4 mM of NaCl, 5.4 mM of KCl, 5 mM of Na2 HPO4.12H2 O, 1 mM of NaH2 PO4.2H2,
1.2 mM of MgSO4, 1 mM of CaCl2, 25 mM of HEPES, 2 mg/ml of glucose, and 1 mg/ml of BSA.
Into 70 ml of the nutrient solution containing 1 mg/ml of collagenase, minced mucosal pieces were dispersed and intensely stirred in a conical flask with a stirrer at 37° C. for 40 to 60 minutes. During this period, 100% O2 was sprayed on the nutrient solution surface and the pH was appropriately measured such that it was immediately adjusted to pH 7.4, when the value was therebelow, with a base. The nutrient solution was added to the reaction solution so as to attain the total amount of about 200 ml. After being filtered through a mesh, the suspension was divisionally introduced into 50 ml centrifuge tubes and left for 15 minutes such that gastric fundic gland was deposited. The supernatant was repeatedly removed by an aspirator, dispersed in the nutrient solution, and then left such that the gastric fundic gland was washed three times. At this time, without using a pipette, the suspension was alternately introduced into two centrifuge tubes so as to effect dispersion. The number of cells was counted under microscope and adjusted to 1.6×10^6 cells/ml.
ii-b) [^14 C]-aminopyrine uptake test.
Then, [^14 C]-aminopyrine uptake test was performed. After an Eppendorf tube was weighed, 10 μl (final concentration: 10^-5 M) of histamine dissolved in the above-mentioned nutrient solution, 10 μl (final concentration: 10^-5 M) of the test compound dissolved in DMSO, and 10 μl (final concentration: 0.05 μCi/ml) of [^14 C]-aminopyrine diluted with the nutrient solution were introduced therein and then 970 μl of the isolated gastric fundic gland suspension prepared above was added thereto. Subsequently, this mixture was shaken at 37° C. for 40 minutes at 125 cycles/minute. After being centrifuged for 30 seconds, 200 μl of its supernatant was collected into a mini-vial, while the rest was removed by an aspirator. The gland pellet was completely dried as the tube with its lid being opened was kept for one night in a drying oven at 80° C. and then the lid was closed and the weight was determined at room temperature. Then 100 μl of 1N KOH was added thereto and the tube with its lid being closed was treated at 60° C. for 1 to 2 hours so as to dissolve the pellet. Then, the contents thereof were transferred to a mini-vial. Into the mini-vial containing the supernatant or gland pellet, 4 ml of Atomlite™ was added and then the radioactivity was measured by a liquid scintillation counter. Here, after the radioactivity of the gland pellet was corrected by using a sample in which 20 mM of NaSCN was added so as to cancel the hydrogen ion concentration gradient, the integration ratio of aminopyrine specifically trapped by the gland pellet was calculated. […]

| SMILES | inhibition in vivo at 100 mg/kg (stress ulcer) [%] | toxicity at single dose (AT), 5 levels (Slc:ICR mice) | inhibition at 10 µM [1] [%] |
| --- | --- | --- | --- |
| CCN1CCCC1CNC(=O)c1cc(OCC=C(C)C)ccc1OCC=C(C)C (stereo not drawn) [Example 6, 1-ethyl-2-(2,5-diprenyloxybenzoylaminomethyl)pyrrolidine] | 84 | 3 | 100 |
| CCN1CCCC1CNC(=O)c1ccc(OCC=C(C)C)c(OCC=C(C)C)c1 (stereo not drawn) [Example 7, 1-ethyl-2-(3,4-diprenyloxybenzoylaminomethyl)pyrrolidine] | 92 | 3 | 99.7 |
| CCN1CCCC1CNC(=O)c1cc(OC/C=C(\C)CCC=C(C)C)ccc1OC/C=C(\C)CCC=C(C)C (stereo not drawn) [Example 10, 1-ethyl-2-(2,5-digeranyloxybenzoylaminomethyl)pyrrolidine] | 74 | 3 | 100 |
